Measurements published in ChEMBL document CHEMBL2203178, “Design and one-pot synthesis of new 7-acyl camptothecin derivatives as potent cytotoxic agents” (Bioorg Med Chem Lett, 2012).

Key:
Format in all cases: functional, cell-based
[1] = system: DU-145; assay: Cytotoxicity against human DU145 cells by SRB assay
[2] = system: A549; assay: Cytotoxicity against human A549 cells by SRB assay
[3] = Cytotoxicity against human KBVIN cells by SRB assay
[4] = system: KB; assay: Cytotoxicity against human KB cells by SRB assay

## CC[C@@]1(O)C(=O)OCc2c1cc1n(c2=O)Cc2c-1nc1ccccc1c2C(=O)c1cc(OC)ccc1OC
[1]
  IC50: 2.06 µM
[2]
  IC50: 1.01 µM
[3]
  IC50: 2.25 µM
[4]
  IC50: 2.92 µM

## CC[C@@]1(O)C(=O)OCc2c1cc1n(c2=O)Cc2cc3ccccc3nc2-1 [CAMPTOTHECIN]
[1]
  IC50: 0.0287 µM

## CC[C@@]1(O)C(=O)OCc2c1cc1n(c2=O)Cc2c-1nc1ccccc1c2C(=O)c1cc(OC)c(OC)c(OC)c1
[1]
  IC50: 2.11 µM
[2]
  IC50: 1 µM
[3]
  IC50: 1.17 µM
[4]
  IC50: 3.14 µM

## CCc1c2c(nc3ccc(OC(=O)N4CCC(N5CCCCC5)CC4)cc13)-c1cc3c(c(=O)n1C2)COC(=O)[C@]3(O)CC [IRINOTECAN]
[1]
  IC50: 9.3 µM
[3]
  IC50: > 20 µM

## CCC(=O)c1c2c(nc3ccccc13)-c1cc3c(c(=O)n1C2)COC(=O)[C@]3(O)CC
[1]
  IC50: 0.0898 µM
[2]
  IC50: 0.0317 µM
[3]
  IC50: 0.0287 µM
[4]
  IC50: 0.0592 µM

## CC[C@@]1(O)C(=O)OCc2c1cc1n(c2=O)Cc2c-1nc1ccccc1c2C(=O)c1ccc2c(c1)OCO2
[1]
  IC50: 2.6 µM
[2]
  IC50: 1.13 µM
[3]
  IC50: 1.77 µM
[4]
  IC50: 11.8 µM

## CC[C@@]1(O)C(=O)OCc2c1cc1n(c2=O)Cc2c-1nc1ccccc1c2C(=O)c1ccc(OC)cc1
[1]
  IC50: 1.61 µM
[2]
  IC50: 0.911 µM
[3]
  IC50: 3.14 µM
[4]
  IC50: 4.78 µM

## CC[C@@]1(O)C(=O)OCc2c1cc1n(c2=O)Cc2c-1nc1ccccc1c2C(=O)c1ccoc1
[1]
  IC50: 2.01 µM
[2]
  IC50: 2.02 µM
[3]
  IC50: 1.8 µM
[4]
  IC50: 2.73 µM

## CC[C@@]1(O)C(=O)OCc2c1cc1n(c2=O)Cc2c-1nc1ccccc1c2C(C)=O
[1]
  IC50: 0.0402 µM
[2]
  IC50: 0.0154 µM
[3]
  IC50: 0.131 µM
[4]
  IC50: 0.0233 µM

## CC[C@@]1(O)C(=O)OCc2c1cc1n(c2=O)Cc2c-1nc1ccccc1c2C(=O)c1ccc(C)c(O)c1
[1]
  IC50: 1.54 µM
[2]
  IC50: 1.02 µM
[3]
  IC50: 1.14 µM
[4]
  IC50: 1.73 µM

## CC[C@@]1(O)C(=O)OCc2c1cc1n(c2=O)Cc2c-1nc1ccccc1c2C(=O)c1ccc(Cl)cc1
[1]
  IC50: 1.68 µM
[2]
  IC50: 0.949 µM
[3]
  IC50: 1.12 µM
[4]
  IC50: 3.07 µM

## CC[C@@]1(O)C(=O)OCc2c1cc1n(c2=O)Cc2c-1nc1ccccc1c2C(=O)c1ccccc1
[1]
  IC50: 11 µM
[2]
  IC50: 11 µM
[3]
  IC50: 11.9 µM
[4]
  IC50: 13.3 µM

## CC[C@@]1(O)C(=O)OCc2c1cc1n(c2=O)Cc2c-1nc1ccccc1c2C(=O)c1ccc(C)c(C)c1
[1]
  IC50: 1.7 µM
[2]
  IC50: 1 µM
[3]
  IC50: 4.62 µM
[4]
  IC50: 2.49 µM

## CC[C@@]1(O)C(=O)OCc2c1cc1n(c2=O)Cc2c-1nc1ccccc1c2C(=O)c1ccc(O)cc1
[1]
  IC50: 2.99 µM
[2]
  IC50: 2.51 µM
[3]
  IC50: 1.79 µM
[4]
  IC50: 12.5 µM
